Test results published in patent US9314026B2, “Heterocyclylpyri(mi)dinylpyrazole” (Bayer Intellectual Property GmbH, priority 2011, dated 2016).
Like-named read-outs stand apart in the source and are kept apart here.

Test: determination of the log P values by HPLC on a reverse phase column (C18), EEC-Directive 79/831 Annex V.A8
Type: physicochemical
Procedure: Method A Note on the determination of the log P values and mass detection: The stated log P values were determined in accordance with EEC-Directive 79/831 Annex V.A8 by HPLC (High Performance Liquid Chromatography) on a reverse phase column (C18). […] The mass detection was effected with an […] system. Method B Note on the determination of the log P values and mass detection: The stated log P values were determined in accordance with EEC-Directive 79/831 Annex V.A8 by HPLC (High Performance Liquid Chromatography) on a reverse phase column (C18). […] The mass detection was effected with the Micronass ZQ2000 mass detector from Waters. Method C Note on the determination of the log P values and mass detection: The stated log P values were determined in accordance with EEC-Directive 79/831 Annex V.A8 by UPLC (Ultra Performance Liquid Chromatography) on a reverse phase column (C18). […] The mass detection was effected with the LCT Premier or SQD mass detector from Waters.

| Compound | chromatographic logP (pH 2.7) | chromatographic logP (pH 2.3) | also measured |
| --- | --- | --- | --- |
| 3-iodo-5-methyl-2-phenyl-5,6-dihydro-4H-pyrrolo[1,2-b]pyrazole [[IV-7]] |  |  | LogP (pH 2.3) (pH 2.3, compounds of the type [IV]): 3.74; log P (pH 2.5) (pH 2.5, preparation examples in the text): 3.74 |
| O=C(C1CC1)N(C(=O)C1CC1)c1cc(-c2c(-c3ccc(F)cc3)nn3c2CCCC3)ccn1 [Example 14, N-(cyclopropylcarbonyl)-N-{4-[2-(4-fluorophenyl)-4,5,6,7-tetrahydropyrazolo[1,5-a]pyridin-3-yl]pyridin-2-yl}cyclopropanecarboxamide] | 3.28 |  | LogPA (Method A (HPLC, C18, acetonitrile/water with formic acid), compounds of the type [I]): 3.28 |
| COC(=O)N(C(=O)C1CC1)c1cc(-c2c(-c3ccc(F)cc3)nn3c2CCC3)ccn1 [Example 15, methyl (cyclopropylcarbonyl){4-[2-(4-fluorophenyl)-5,6-dihydro-4H-pyrrolo[1,2-b]pyrazol-3-yl]pyridin-2-yl}carbamate] |  |  | chromatographic logP: 2.54 |
| CCC(=O)N(C(=O)CC)c1cc(-c2c(-c3ccc(F)cc3)nn3c2CCC3C)ccn1 (stereo not shown) [Example 16, N-{4-[2-(4-fluorophenyl)-6-methyl-5,6-dihydro-4H-pyrrolo[1,2-b]pyrazol-3-yl]pyridin-2-yl}-N-propionylpropanamide] |  |  | chromatographic logP: 3.21 |
| CCC(=O)N(C(=O)C1CC1)c1cc(-c2c(-c3ccc(F)cc3)nn3c2CCCC3)ccn1 [Example 17, N-{4-[2-(4-fluorophenyl)-4,5,6,7-tetrahydropyrazolo[1,5-a]pyridin-3-yl]pyridin-2-yl}-N-propionylcyclopropanecarboxamide] |  |  | chromatographic logP: 3.22 |
| CCC(=O)N(C(=O)CC)c1cc(-c2c(-c3ccc(F)cc3)nn3c2CCCC3)ccn1 [Example 18, N-{4-[2-(4-fluorophenyl)-4,5,6,7-tetrahydropyrazolo[1,5-a]pyridin-3-yl]pyridin-2-yl}-N-propionylpropanamide] |  |  | chromatographic logP: 3.18 |
| CC1(C)OB(c2c(-c3ccc(F)c(F)c3)nn3c2CCC3)OC1(C)C [[III-2], 2-(3,4-difluorophenyl)-3-(4,4,5,5-tetramethyl-1,3,2-dioxaborolan-2-yl)-5,6-dihydro-4H-pyrrolo[1,2-b]pyrazole] | 4.3 |  |  |
| CC1(C)OB(c2c(-c3ccc(F)c(Cl)c3)nn3c2CCC3)OC1(C)C [[III-3], 2-(3-chloro-4-fluorophenyl)-3-(4,4,5,5-tetramethyl-1,3,2-dioxaborolan-2-yl)-5,6-dihydro-4H-pyrrolo[1,2-b]pyrazole] | 4.73 |  |  |
| CC1CCn2nc(-c3ccccc3)c(I)c21 (stereo not shown) [[IV-4], 3-iodo-4-methyl-2-phenyl-5,6-dihydro-4H-pyrrolo[1,2-b]pyrazole] |  | 3.56 | chromatographic logP (pH 2.5): 3.56 |
| CC1CCc2c(I)c(-c3ccc(F)cc3)nn21 (stereo not shown) [[IV-5], 2-(4-fluorophenyl)-3-iodo-6-methyl-5,6-dihydro-4H-pyrrolo[1,2-b]pyrazole] |  | 3.78 | chromatographic logP (pH 2.5): 3.78 |
| Fc1ccc(-c2cc3n(n2)CCC3)cc1 [[VI-1], 2-(4-fluorophenyl)-5,6-dihydro-4H-pyrrolo[1,2-b]pyrazole] | 2.39 | 2.39 |  |
| Fc1ccc(-c2cc3n(n2)CCC3)cc1F [[VI-2], 2-(3,4-difluorophenyl)-5,6-dihydro-4H-pyrrolo[1,2-b]pyrazole] | 2.69 | 2.69 |  |
| Fc1ccc(-c2cc3n(n2)CCC3)cc1Cl [[VI-3], 2-(3-chloro-4-fluorophenyl)-5,6-dihydro-4H-pyrrolo[1,2-b]pyrazole] | 3.07 | 3.07 |  |
| CS(=O)(=O)OCCCc1cc(-c2ccc(F)cc2)n[nH]1 [[VII-1], 3-[3-(4-fluorophenyl)-1H-pyrazol-5-yl]propyl methanesulfonate] | 2 |  |  |
| CC(=O)Nc1cc(-c2c(-c3ccccc3)nn3c2C(C)CC3)ccn1 (stereo not shown) [[XI-1], N-[4-(4-methyl-2-phenyl-5,6-dihydro-4H-pyrrolo[1,2-b]pyrazol-3-yl)pyridin-2-yl]acetamide] | 1.76 | 1.6 |  |
| CCC(=O)Nc1cc(-c2c(-c3ccccc3)nn3c2C(C)CC3)ccn1 (stereo not shown) [[XI-2], N-[4-(4-methyl-2-phenyl-5,6-dihydro-4H-pyrrolo[1,2-b]pyrazol-3-yl)pyridin-2-yl]propanamide] |  | 1.87 |  |
| CC(=O)Nc1cc(-c2c(-c3ccc(F)cc3)nn3c2CC(C)C3)ccn1 (stereo not shown) [[XI-3], N-{4-[2-(4-fluorophenyl)-5-methyl-5,6-dihydro-4H-pyrrolo[1,2-b]pyrazol-3-yl]pyridin-2-yl}acetamide] |  | 1.64 |  |
| O=C(Nc1cc(-c2c(-c3ccc(F)cc3)nn3c2CCC3)ccn1)C1CC1 [[XI-4], N-{4-[2-(4-fluorophenyl)-5,6-dihydro-4H-pyrrolo[1,2-b]pyrazol-3-yl]pyridin-2-yl}cyclopropanecarboxamide] |  | 1.73 |  |
| COCC(=O)Nc1cc(-c2c(-c3ccccc3)nn3c2C(C)CC3)ccn1 (stereo not shown) [[XI-5], 2-methoxy-N-[4-(4-methyl-2-phenyl-5,6-dihydro-4H-pyrrolo[1,2-b]pyrazol-3-yl)pyridin-2-yl]acetamide] |  | 2.22 |  |
| CCC(=O)Nc1cc(-c2c(-c3ccc(F)cc3)nn3c2CC(C)C3)ccn1 (stereo not shown) [[XI-7], N-{4-[2-(4-fluorophenyl)-5-methyl-5,6-dihydro-4H-pyrrolo[1,2-b]pyrazol-3-yl]pyridin-2-yl}propanamide] |  | 1.91 |  |
| CC(C)C(=O)Nc1cc(-c2c(-c3ccc(F)cc3)nn3c2CCC3)ccn1 [[XI-8], N-{4-[2-(4-fluorophenyl)-5,6-dihydro-4H-pyrrolo[1,2-b]pyrazol-3-yl]pyridin-2-yl}-2-methylpropanamide] |  | 1.97 |  |
| O=C(CC1CC1)Nc1cc(-c2c(-c3ccc(F)cc3)nn3c2CCC3)ccn1 [[XI-13], 2-cyclopropyl-N-{4-[2-(4-fluorophenyl)-5,6-dihydro-4H-pyrrolo[1,2-b]pyrazol-3-yl]pyridin-2-yl}acetamide] |  | 2.08 |  |

Continued, in another order:

| chromatographic logP (pH 2.7) | chromatographic logP (pH 2.3) | Compound | also measured |
| --- | --- | --- | --- |
| 1.02 | 1.02 | Nc1cc(-c2c(-c3ccc(F)cc3)nn3c2CCC3)ccn1 [[II-1], 4-[2-(4-fluorophenyl)-5,6-dihydro-4H-pyrrolo[1,2-b]pyrazol-3-yl]pyridin-2-amine] |  |
| 1.28 | 1.28 | Nc1cc(-c2c(-c3ccc(F)c(Cl)c3)nn3c2CCC3)ccn1 [[II-2], 4-[2-(3-chloro-4-fluorophenyl)-5,6-dihydro-4H-pyrrolo[1,2-b]pyrazol-3-yl]pyridin-2-amine] |  |
| 1.08 | 1.08 | Nc1cc(-c2c(-c3ccc(F)c(F)c3)nn3c2CCC3)ccn1 [[II-3], 4-[2-(3,4-difluorophenyl)-5,6-dihydro-4H-pyrrolo[1,2-b]pyrazol-3-yl]pyridin-2-amine] |  |
| 3.97 |  | CC1(C)OB(c2c(-c3ccc(F)cc3)nn3c2CCC3)OC1(C)C [[III-1], 2-(4-fluorophenyl)-3-(4,4,5,5-tetramethyl-1,3,2-dioxaborolan-2-yl)-5,6-dihydro-4H-pyrrolo[1,2-b]pyrazole] |  |
|  | 3.21 | Fc1ccc(-c2nn3c(c2Br)CCC3)cc1 [[IV-1], 3-bromo-2-(4-fluorophenyl)-5,6-dihydro-4H-pyrrolo[1,2-b]pyrazole] | chromatographic logP (pH 7): 3.21 |
|  | 3.54 | Fc1ccc(-c2nn3c(c2Br)CCC3)cc1F [[IV-2], 3-bromo-2-(3,4-difluorophenyl)-5,6-dihydro-4H-pyrrolo[1,2-b]pyrazole] | chromatographic logP (pH 2.5): 3.54 |
|  | 4.01 | Fc1ccc(-c2nn3c(c2Br)CCC3)cc1Cl [[IV-3], 3-bromo-2-(3-chloro-4-fluorophenyl)-5,6-dihydro-4H-pyrrolo[1,2-b]pyrazole] | chromatographic logP (pH 2.5): 4.01 |
|  | 4.49 | Clc1cc(-c2nn3c(c2I)CCCC3)cs1 [[IV-6], 2-(5-chloro-3-thienyl)-3-iodo-4,5,6,7-tetrahydropyrazolo[1,5-a]pyridine] | chromatographic logP (pH 2.5): 4.49 |
| 2.42 |  | CS(=O)(=O)OCCCc1cc(-c2ccc(F)c(Cl)c2)n[nH]1 [[VII-2], 3-[3-(3-chloro-4-fluorophenyl)-1H-pyrazol-5-yl]propyl methanesulfonate] |  |
| 2.17 |  | CS(=O)(=O)OCCCc1cc(-c2ccc(F)c(F)c2)n[nH]1 [[VII-3], 3-[3-(3,4-difluorophenyl)-1H-pyrazol-5-yl]propyl methanesulfonate] |  |
|  | 1.96 | CCC1CCc2c(-c3ccnc(NC(C)=O)c3)c(-c3ccc(F)cc3)nn21 (stereo not shown) [[XI-6], N-{4-[6-ethyl-2-(4-fluorophenyl)-5,6-dihydro-4H-pyrrolo[1,2-b]pyrazol-3-yl]pyridin-2-yl}acetamide] |  |
|  | 2.74 | CCC(=S)Nc1cc(-c2c(-c3ccc(F)cc3)nn3c2CCC3)ccn1 [[XI-9], N-{4-[2-(4-fluorophenyl)-5,6-dihydro-4H-pyrrolo[1,2-b]pyrazol-3-yl]pyridin-2-yl}propanethioamide] |  |
|  | 1.93 | CCC(=O)Nc1cc(-c2c(-c3ccc(F)c(F)c3)nn3c2CCC3)ccn1 [[XI-10], N-{4-[2-(3,4-difluorophenyl)-5,6-dihydro-4H-pyrrolo[1,2-b]pyrazol-3-yl]pyridin-2-yl}propanamide] |  |
|  | 2.32 | CC1CCn2nc(-c3ccccc3)c(-c3ccnc(NC(=O)CC4CC4)c3)c21 (stereo not shown) [[XI-11], 2-cyclopropyl-N-[4-(4-methyl-2-phenyl-5,6-dihydro-4H-pyrrolo[1,2-b]pyrazol-3-yl)pyridin-2-yl]acetamide] |  |
|  | 1.95 | CCC(=O)Nc1cc(-c2c(-c3csc(Cl)c3)nn3c2CCC3)ccn1 [[XI-12], N-{4-[2-(5-chloro-3-thienyl)-5,6-dihydro-4H-pyrrolo[1,2-b]pyrazol-3-yl]pyridin-2-yl}propanamide] |  |
